In patent US20060179499A1, “Non-human animal models for diabetic complications and their uses” (Biomedical Research Models, Inc., priority 2004, published 2006):

Tests used:
BBZDR/Wor rats [1] = assay: Environmental induction of diabetes in BBZDR/Wor rats (during initial development of the strain); format: in vivo, rat
Protocol: (§1) During the initial development of the BBZDR/Wor strain, we performed several experiments to determine whether BBZDR/Wor animals are susceptible to other environmental triggers of diabetes. […] Lean and obese BBZDR/Wor rats were treated with either the TLR3 ligand, poly I:C, or poly I:C and KRV and the incidence of diabetes was determined. […] In contrast, 35-64% of animals treated with poly I:C+KRV became diabetic. We consistently observed a higher incidence of diabetes among lean BBZDR/Wor animals as compared to obese rats. More experiments will need to be performed to determine whether these differences are statistically significant. We recently revisited the poly I:C experiments in the now, fully-inbred (>40 generations) BBZDR/Wor rat line. […] In contrast to our previous results, we observed that 40% of the lean animals and 50% of the obese females developed hyperglycemia.

BBZDR/Wor rats [2] = assay: Preliminary poly I:C experiment in fully-inbred BBZDR/Wor rat line, onset of diabetes; format: in vivo; conditions: fully-inbred (>40 generations) line, 5 μg/gm body weight, 3× a week
Protocol: as §1

[3] = system: dorsal root explants and cultured neurons; conditions: application to dorsal root explants and cultured neurons; cited from earlier work
BBDR/Wor rats = conditions: cited from earlier work

With “polyinosine:polycytidylic acid [Poly I:C]” as the substance, how does the “% Diabetic With Treatment” value (BBZDR/Wor rats [1]; Lean BBZDR/Wor rats) read?
Its value is 0%.

What about the incidence of diabetes (BBZDR/Wor rats [1]; Lean and obese BBZDR/Wor rats together) of the same substance?
The incidence of diabetes was “no animals treated with poly I:C alone developed diabetes”.

And the “% Diabetic With Treatment” value (BBZDR/Wor rats [1]; Obese BBZDR/Wor rats)?
The value was 0%.

And the “animals that developed hyperglycemia” value (BBZDR/Wor rats [2]; lean female animals)?
Its value is 40%.

And the “animals that developed hyperglycemia” value (BBZDR/Wor rats [2]; obese females)?
The value was 50%.

And the “effect on axonal outgrowth” value [3]?
The value was “inhibits axonal outgrowth”.

What about the induction of hyperglycemia (BBDR/Wor rats; low doses, poly I:C alone) of the same substance?
Its induction of hyperglycemia is “do not induce hyperglycemia”.

What about the incidence of diabetes (BBDR/Wor rats; poly I:C given just prior to KRV infection) of the same substance?
The incidence of diabetes was ~100%.
